For data set [1] the following is noted: rcm bond, Zhan's catalyst, DCE.
The subject of a further data set is HCV genotype 1b replicon. Briefly: HCV replicon assay, genotype 1b replicon EC50. In kind it is cell-based, Hepatitis C virus. As to conditions: Hepatitis C virus, HCV replicon, genotype 1b, read-out: EC50 [gt-1b]. The method in brief: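 Readout was replicon RNA copy number, by 32P-probe protection or TaqMan normalized to cellular cyclophilin A RNA, or luciferase activity for luciferase:Neo^r fusion lines. Cells were exposed to serially diluted compound for 24-48 hours without G418, then washed and lysed. EC50 derived from four-parameter fit relative to DMSO.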
(In general: In antiviral work, replicon cells carry a viral genome segment that copies itself.)

In data set [2] the target is HCV NS3/4A protease genotype 1b (Hepatitis C virus genotype 1b, UniProt P26663). Description: HCV NS3/4A protease time-resolved fluorescence (TRF) assay, Ki against genotype 1b. In kind it is biochemical. Particulars: IC50 [gt-1b], NS3/4A protease TRF assay, genotype 1b enzyme 0.2 nM. The method in brief:
(§1)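 Ki was converted from fitted IC50 using IC50=Ki(1+[S]/KM) and 25 nM substrate. Protease (genotype 1b 0.2 nM, A156T 0.4 nM, 3a 0.025 nM) and compound were pre-mixed 30 min in pH 7.5 HEPES/NaCl/glycerol/DTT buffer. Cleavage then proceeded 2.5 h at room temperature, detected by time-resolved europium fluorescence (340/615 nm).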

Data set [3] addresses HCV NS3/4A protease A156T mutant (Hepatitis C virus genotype 1b, UniProt P26663, A1182T). Briefly: HCV NS3/4A protease time-resolved fluorescence (TRF) assay, Ki against A156T mutant. In kind it is biochemical. Particulars: NS3/4A protease TRF assay, A156T mutant enzyme 0.4 nM, read-out: IC50 [gt-1b A156T]. Put shortly:
as §1

In data set [4] the target is HCV NS3/4A protease genotype 3a (Hepatitis C virus genotype 3a, UniProt Q81495). Briefly: HCV NS3/4A protease time-resolved fluorescence (TRF) assay, Ki against genotype 3a. In kind it is biochemical. Put shortly: as §1

Like-named read-outs stand apart in the source and are kept apart here.

As for `CC(C)(C)OC(=O)N[C@H]1CCCCCC=C[C@@H]2C[C@@]2(C(=O)NS(=O)(=O)C2(C)CC2)NC(=O)[C@@H]2C[C@]3(CCc4c(c(C(F)(F)F)nc5ccccc45)O3)CN2C1=O`, the ring closure, yield of all isomers in data set [1] (from C=CCCCCC[C@H](NC(=O)OC(C)(C)C)C(=O)N1C[C@@]2(CCc3c(c(C(F)(F)F)nc4ccccc34)O2)C[C@H]1C(=O)N[C@]1(C(=O)NS(=O)(=O)C2(C)CC2)C[C@H]1C=C, 2.94 mM, 75.0 °C) came to 73.4%.

The compound `CCOC(=O)[C@@]12C[C@H]1C=CCCCCC[C@H](NC(=O)OC(C)(C)C)C(=O)N1C[C@@]3(CCc4c(c(C)nc5c(C(F)(F)F)cccc45)O3)C[C@H]1C(=O)N2` displayed a ring closure, yield of all isomers in data set [1] (from C=CCCCCC[C@H](NC(=O)OC(C)(C)C)C(=O)N1C[C@@]2(CCc3c(c(C)nc4c(C(F)(F)F)cccc34)O2)C[C@H]1C(=O)N[C@]1(C(=O)OCC)C[C@H]1C=C, 3.36 mM, 65.0 °C, 3.0 h) of 50%.

`CCOC(=O)[C@@]12C[C@H]1C=CCCCCC[C@H](NC(=O)OC(C)(C)C)C(=O)N1C[C@@]3(CCc4c(c(C)nc5c(F)cccc45)O3)C[C@H]1C(=O)N2` yielded a ring closure, yield of all isomers in data set [1] (from C=CCCCCC[C@H](NC(=O)OC(C)(C)C)C(=O)N1C[C@@]2(CCc3c(c(C)nc4c(F)cccc34)O2)C[C@H]1C(=O)N[C@]1(C(=O)OCC)C[C@H]1C=C, 4.53 mM, 65.0 °C, 1.0 h) of 48%.

`CCOC(=O)[C@@]12C[C@H]1C=CCCCCC[C@H](NC(=O)OC(C)(C)C)C(=O)N1C[C@@]3(CCc4c(c(C)nc5ccc(C)cc45)O3)C[C@H]1C(=O)N2`: the ring closure, yield of all isomers in data set [1] (from C=CCCCCC[C@H](NC(=O)OC(C)(C)C)C(=O)N1C[C@@]2(CCc3c(c(C)nc4ccc(C)cc34)O2)C[C@H]1C(=O)N[C@]1(C(=O)OCC)C[C@H]1C=C, 3.55 mM, 65.0 °C, 3.0 h) is 68%.

In data set [1] (from C=CCCCCC[C@H](NC(=O)OC(C)(C)C)C(=O)N1C[C@@]2(CCc3c(c(C4CCC4)nc4ccc(OC)cc34)O2)C[C@H]1C(=O)N[C@]1(C(=O)OCC)C[C@H]1C=C, 4.5 mM, 70.0 °C, 2.2 h), `CCOC(=O)[C@@]12C[C@H]1C=CCCCCC[C@H](NC(=O)OC(C)(C)C)C(=O)N1C[C@@]3(CCc4c(c(C5CCC5)nc5ccc(OC)cc45)O3)C[C@H]1C(=O)N2` yielded a ring closure, yield of all isomers of 72%.

As for `Cc1nc2ccc(Cl)cc2c2c1O[C@]1(CC2)C[C@H]2C(=O)N[C@]3(C(=O)NS(=O)(=O)C4(C)CC4)C[C@H]3C=CCCCCC[C@H](NC(=O)OC(C)(C)C)C(=O)N2C1`, the ring closure, yield of all isomers in data set [1] (from C=CCCCCC[C@H](NC(=O)OC(C)(C)C)C(=O)N1C[C@@]2(CCc3c(c(C)nc4ccc(Cl)cc34)O2)C[C@H]1C(=O)N[C@]1(C(=O)NS(=O)(=O)C2(C)CC2)C[C@H]1C=C, 2.4 mM, 75.0 °C, 0.5 h) was determined as 71.6%.

The term EC50 denotes the concentration needed to bring the measured effect to its halfway point. Usually IC50 stands for the midpoint of a concentration-inhibition curve. With `CCc1nc2ccc(OCCCOC)cc2c2c1O[C@]1(CC2)C[C@H]2C(=O)N[C@]3(C(=O)NS(=O)(=O)C4(C)CC4)C[C@H]3/C=C\CCCCC[C@H](NC(=O)OCC(C)C)C(=O)N2C1` [Example 484, 2-methylpropyl [(2R,6S,12Z,13aS,14aR,16aS)-5′-ethyl-9′-(3-methoxypropoxy)-14a-{[(1-methylcyclopropyl)sulfonyl]carbamoyl}-5,16-dioxo-1,1′,2′,5,6,7,8,9,10,11,13a,14,14a,15,16,16a-hexadecahydrospiro[cyclopropa[e]pyrrolo[1,2-a][1,4]diazacyclopentadecine-2,3′-pyrano[2,3-c]quinolin]-6-yl]carbamate], in the data set with HCV genotype 1b replicon (K+ salt), the EC50 turned out to be 0.357 nM. In addition, the IC50 in data set [2] (K+ salt) came to 3 pM; in data set [3] (K+ salt), 0.164 nM; in data set [4] it was 0.628 nM.

Regarding `CCc1nc2ccc(OCCCOC)cc2c2c1O[C@]1(CC2)C[C@H]2C(=O)N[C@]3(C(=O)NS(=O)(=O)C4(C)CC4)C[C@H]3/C=C\CCCCC[C@H](NC(=O)OCC(C)(C)C)C(=O)N2C1` [Example 488, 2,2-dimethylpropyl [(2R,6S,12Z,13aS,14aR,16aS)-5′-ethyl-9′-(3-methoxypropoxy)-14a-{[(1-methylcyclopropyl)sulfonyl]carbamoyl}-5,16-dioxo-1,1′,2′,5,6,7,8,9,10,11,13a,14,14a,15,16,16a-hexadecahydrospiro[cyclopropa[e]pyrrolo[1,2-a][1,4]diazacyclopentadecine-2,3′-pyrano[2,3-c]quinolin]-6-yl]carbamate], the EC50 in the data set on HCV genotype 1b replicon (K+ salt) is 0.412 nM. Besides, the IC50 is 4 pM in data set [2] (K+ salt), 0.136 nM in data set [3] (K+ salt) and 0.486 nM in data set [4].

For `CC1(S(=O)(=O)NC(=O)[C@@]23C[C@H]2/C=C\CCCCC[C@H](NC(=O)OC2C[C@@H]4C[C@@H]4C2)C(=O)N2C[C@@]4(CCc5c(c(C(F)(F)F)nc6ccc(OCF)cc56)O4)C[C@H]2C(=O)N3)CC1` (stereo partly drawn) [Example 501, (1R,5S)-bicyclo[3.1.0]hex-3-yl [(2R,6S,12Z,13aS,14aR,16aS)-9′-(fluoromethoxy)-14a-{[(1-methylcyclopropyl)sulfonyl]carbamoyl}-5,16-dioxo-5′-(trifluoromethyl)-1,1′,2′,5,6,7,8,9,10,11,13a,14,14a,15,16,16a-hexadecahydrospiro[cyclopropa[e]pyrrolo[1,2-a][1,4]diazacyclopentadecine-2,3′-pyrano[2,3-c]quinolin]-6-yl]carbamate], in the data set on HCV genotype 1b replicon (K+ salt), the EC50 was 3.7 nM. For the same compound, the half-inhibitory concentration (IC50) in data set [2] (K+ salt) stood at 4 pM; in data set [3] (K+ salt) it was 0.6 nM; in data set [4], 0.206 nM.

In the case of `CCc1nc2ccc(OC)cc2c2c1O[C@]1(CC2)C[C@H]2C(=O)N[C@]3(C(=O)NS(=O)(=O)C4(C)CC4)C[C@H]3/C=C\CCCCC[C@H](NC(=O)O[C@H](C)C3CC3)C(=O)N2C1` [Example 502, (1R)-1-cyclopropylethyl [(2R,6S,12Z,13aS,14aR,16aS)-5′-ethyl-9′-methoxy-14a-{[(1-methylcyclopropyl)sulfonyl]carbamoyl}-5,16-dioxo-1,1′,2′,5,6,7,8,9,10,11,13a,14,14a,15,16,16a-hexadecahydrospiro[cyclopropa[e]pyrrolo[1,2-a][1,4]diazacyclopentadecine-2,3′-pyrano[2,3-c]quinolin]-6-yl]carbamate], the EC50 in the data set on HCV genotype 1b replicon is 0.29 nM. For the same compound, the IC50 in data set [2] turned out to be 4 pM; in data set [3], 0.121 nM; in data set [4], 0.48 nM.

On to `CC(C)COC(=O)N[C@H]1CCCCC/C=C\[C@@H]2C[C@@]2(C(=O)NS(=O)(=O)C2(C)CC2)NC(=O)[C@@H]2C[C@]3(CCc4c(c(C(F)(F)F)nc5ccc(OCCCN6CCOCC6)cc45)O3)CN2C1=O` [Example 511, 2-methylpropyl [(2R,6S,12Z,13aS,14aR,16aS)-14a-{[(1-methylcyclopropyl)sulfonyl]carbamoyl}-9′-[3-(morpholin-4-yl)propoxy]-5,16-dioxo-5′-(trifluoromethyl)-1,1′,2′,5,6,7,8,9,10,11,13a,14,14a,15,16,16a-hexadecahydrospiro[cyclopropa[e]pyrrolo[1,2-a][1,4]diazacyclopentadecine-2,3′-pyrano[2,3-c]quinolin]-6-yl]carbamate], for which the EC50 with HCV genotype 1b replicon was 0.782 nM. The IC50 in data set [2] amounted to 8 pM; in data set [3], 0.235 nM; in data set [4] it was 0.258 nM.

Turning to `CCc1nc2ccc(OCCCN3CCOCC3)cc2c2c1O[C@]1(CC2)C[C@H]2C(=O)N[C@]3(C(=O)NS(=O)(=O)C4(C)CC4)C[C@H]3/C=C\CCCCC[C@H](NC(=O)OC(C)(C)C)C(=O)N2C1` [Example 514, tert-butyl {(2R,6S,12Z,13aS,14aR,16aS)-5′-ethyl-14a-{[(1-methylcyclopropyl)sulfonyl]carbamoyl}-9′-[3-(morpholin-4-yl)propoxy]-5,16-dioxo-1,1′,2′,5,6,7,8,9,10,11,13a,14,14a,15,16,16a-hexadecahydrospiro[cyclopropa[e]pyrrolo[1,2-a][1,4]diazacyclopentadecine-2,3′-pyrano[2,3-c]quinolin]-6-yl}carbamate], in the data set with HCV genotype 1b replicon, the EC50 is 0.668 nM. Also, the half-inhibitory concentration (IC50) came to 12 pM in data set [2], 0.0681 nM in data set [3] and 0.224 nM in data set [4].

Consider `CCc1nc2ccc(OCCN3CCOCC3)cc2c2c1O[C@]1(CC2)C[C@H]2C(=O)N[C@]3(C(=O)NS(=O)(=O)C4(C)CC4)C[C@H]3/C=C\CCCCC[C@H](NC(=O)OCC(C)C)C(=O)N2C1` [Example 515, 2-methylpropyl {(2R,6S,12Z,13aS,14aR,16aS)-5′-ethyl-14a-{[(1-methylcyclopropyl)sulfonyl]carbamoyl}-9′-[2-(morpholin-4-yl)ethoxy]-5,16-dioxo-1,1′,2′,5,6,7,8,9,10,11,13a,14,14a,15,16,16a-hexadecahydrospiro[cyclopropa[e]pyrrolo[1,2-a][1,4]diazacyclopentadecine-2,3′-pyrano[2,3-c]quinolin]-6-yl}carbamate], for which the 50% effective concentration (EC50) in the data set on HCV genotype 1b replicon (HCl salt) amounted to 0.503 nM. Besides, the IC50 was found to be 5 pM in data set [2] (HCl salt), 0.0575 nM in data set [3] (HCl salt) and 0.292 nM in data set [4].

(Values after patent US8987195B2 (priority 2012, dated 2015).)
